Seven compounds from US6790971B1, “19-Nor-steroids” (Aventis Pharma S.A., priority 1989, dated 2004) can be followed below.

Test [1] deals with T1, Progestogen Receptor of Rabbit's Uterus (Oryctolagus cuniculus, UniProt P06186).
T1 construct: The uteri were removed, weighed and homogenized at 0° C; from tissue; host or cells: uterine cytosol (150,000 g supernatant) of estradiol-primed immature rabbits
T1 sequence (P06186 1-930): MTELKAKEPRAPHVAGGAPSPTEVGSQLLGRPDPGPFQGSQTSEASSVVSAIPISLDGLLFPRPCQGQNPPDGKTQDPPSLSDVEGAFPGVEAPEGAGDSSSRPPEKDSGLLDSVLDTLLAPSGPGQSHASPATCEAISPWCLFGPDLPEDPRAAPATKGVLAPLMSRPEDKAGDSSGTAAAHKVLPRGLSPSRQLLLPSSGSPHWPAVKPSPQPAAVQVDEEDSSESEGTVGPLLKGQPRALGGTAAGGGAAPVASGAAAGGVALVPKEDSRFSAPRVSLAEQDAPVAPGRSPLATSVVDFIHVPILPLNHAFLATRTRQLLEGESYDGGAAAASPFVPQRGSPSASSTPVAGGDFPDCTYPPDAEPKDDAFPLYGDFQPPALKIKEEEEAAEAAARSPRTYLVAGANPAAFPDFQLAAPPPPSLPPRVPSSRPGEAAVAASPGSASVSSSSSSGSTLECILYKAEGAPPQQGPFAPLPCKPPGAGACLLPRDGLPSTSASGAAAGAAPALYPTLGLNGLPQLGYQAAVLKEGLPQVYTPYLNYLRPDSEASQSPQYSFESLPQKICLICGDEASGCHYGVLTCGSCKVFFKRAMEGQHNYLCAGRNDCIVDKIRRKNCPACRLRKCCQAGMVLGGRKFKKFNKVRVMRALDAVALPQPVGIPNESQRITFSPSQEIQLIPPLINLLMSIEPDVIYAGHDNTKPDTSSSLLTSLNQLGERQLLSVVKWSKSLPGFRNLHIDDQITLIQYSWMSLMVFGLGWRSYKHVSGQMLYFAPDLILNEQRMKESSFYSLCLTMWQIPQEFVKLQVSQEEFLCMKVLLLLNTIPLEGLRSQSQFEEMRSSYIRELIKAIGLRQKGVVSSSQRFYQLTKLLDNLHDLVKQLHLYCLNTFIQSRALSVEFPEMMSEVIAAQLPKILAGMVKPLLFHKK
As to the kind of experiment: Relative affinity of the bond, progestogen receptor (tritiated product R displacement). It counts as binding. The conditions noted are these: for Relative affinity of the bond (RAB), Progestogen, 2 H: incubation 2 H at 0° C.; for Relative affinity of the bond (RAB), Progestogen, 2 H / Relative affinity of the bond (RAB), Progestogen, 24 H: RAB=100(CH)/(CX); for Relative affinity of the bond (RAB), Progestogen, 24 H: incubation 24 H at 0° C. The method, then:
Progestogen Receptor of Rabbit's Uterus:
Impuberal rabbits weighing about 1 kg received a cutaneous application of 25 μg of estradiol and 5 days after this treatment, the animals were killed. The uteri were removed, weighed and homogenized at 0° C. using a Potter teflon-glass in a TS buffered solution (Tris 10 mM, Saccharose 0.25 M, HCl pH 7.4) (1 g of tissue for 50 ml of TS). The homogenate was then ultracentrifuged (150,000 g×90 minutes) at 0° C. and aliquots of the supernatant were incubated at 0° C. for a time t, with a constant concentration (T) of the tritiated product R (17,21-dimethyl-19-nor-Δ^4,9-pregnadiene-3,20-dione in the presence of increasing concentrations (0-2500.10^−9 M) either of cold R or of cold progesterone, or of the cold product to be tested. The concentration (B) of bound tritiated R was subsequently measured in each incubate by the technique of adsorption on dextran charcoal.
(§1) Calculation of the Relative Affinty of the Bond
(§2) The calculation of the Relative Affinity of the Bond (RAB) was identical for all the receptors. The following 2 curves were traced; the percentage of the bound tritiated hormone [formula]
(§3) was a function of the logarithm of the concentration of the cold reference hormone and [formula]
(§4) as a function of the logarithm of the concentration of the cold product tested.
(§5) One determined the straight line of the equation [formula]
(§6) The intersections of the straight line I50 and of the curves make it possible to evaluate the concentrations of the cold reference hormone (CH) and of the tested cold product (CX) which inhibit to an extend of 50% the binding of the tritiated hormone upon the receptor. The relative affinity of the bond (RAB) of the tested product is determined by the equation

For test [2], the target named is T2, Glucocorticoid Receptor of Rat Thymus (Rattus norvegicus, UniProt P06536).
T2 construct: The thymuses were removed and homogenized at 0° C; from tissue; host or cells: thymus cytosol (105,000 g supernatant) of adrenalectomised male Sprague-Dawley rats
T2 sequence (P06536 1-795): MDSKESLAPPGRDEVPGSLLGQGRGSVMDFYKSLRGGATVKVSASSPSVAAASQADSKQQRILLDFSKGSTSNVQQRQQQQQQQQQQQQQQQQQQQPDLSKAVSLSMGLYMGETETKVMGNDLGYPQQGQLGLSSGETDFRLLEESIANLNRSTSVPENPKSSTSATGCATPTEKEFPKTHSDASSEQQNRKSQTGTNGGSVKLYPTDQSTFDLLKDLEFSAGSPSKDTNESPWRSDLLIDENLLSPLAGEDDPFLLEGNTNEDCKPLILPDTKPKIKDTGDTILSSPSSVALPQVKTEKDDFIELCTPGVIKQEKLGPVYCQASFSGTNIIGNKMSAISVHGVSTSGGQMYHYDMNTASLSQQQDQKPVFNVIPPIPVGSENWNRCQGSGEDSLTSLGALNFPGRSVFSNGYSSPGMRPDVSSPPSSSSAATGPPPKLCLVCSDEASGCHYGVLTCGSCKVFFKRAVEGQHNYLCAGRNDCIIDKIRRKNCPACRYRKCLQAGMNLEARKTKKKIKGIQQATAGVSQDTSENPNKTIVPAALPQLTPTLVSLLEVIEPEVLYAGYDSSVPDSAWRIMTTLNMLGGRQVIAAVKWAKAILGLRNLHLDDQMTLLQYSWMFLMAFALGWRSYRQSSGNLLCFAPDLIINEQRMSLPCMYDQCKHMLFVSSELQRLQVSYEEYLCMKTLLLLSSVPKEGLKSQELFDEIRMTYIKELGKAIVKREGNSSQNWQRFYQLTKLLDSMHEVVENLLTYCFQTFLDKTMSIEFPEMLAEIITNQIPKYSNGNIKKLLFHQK
As to the kind of experiment: Relative affinity of the bond, glucocorticoid receptor (tritiated dexamethasone displacement). The conditions noted are these: RAB=100(CH)/(CX); for Relative affinity of the bond (RAB), Glucocoticoid, 4 H: incubation 4 H at 0° C.; for Relative affinity of the bond (RAB), Glucocoticoid, 24 H: incubation 24 H at 0° C. It counts as binding. The method, then: Glucocorticoid Receptor of Rat Thymus:
Male Sprague Dawley EOPS rats weighing 160 to 200 g were subjected to suprarenalectomy and 4 to 8 days after this intervention, the animals were killed. The thymuses were removed and homogenized at 0° C. in a 10 mM Tris, 0.25 M saccharose, 2 mM dithiothreitol, HCL pH 7.4 buffer, with the aid of a Potter polytetrafluoroethylene-glass (1 g of tissue for 10 ml of TS). The homogenate was subsequently ultracentrifuged (105,000 g×90 min) at 0° C. and aliquots of the supernatant were incubated at 0° C. for a time (t) with a constant concentration (T) of tritiated dexamethasone in the presence of increasing concentrations (0-2,500.10^−9 M) either of cold dexamethasone, or of cold product to be tested. The concentration (B) of the bound tritiated dexamethasone was measured in each incubate by the adsorption technique on dextran carbon.
as §1, §2, §3, §4, §5, §6

As for `CCCCN(C)C(=O)CCCCCCCCCC[C@H]1C[C@]2(C)[C@@H](O)CC[C@H]2[C@@H]2CCc3cc(O)ccc3[C@@H]12` [Example 13, N-Butyl-3,17β-Dihydroxy-N-Methyl-11β-Δ^1,3,5(10)-Estratriene-Undecanamide], in test [1], the “Relative affinity of the bond (RAB), Progestogen, 2 H” value (shortened to “Relative affinity of the bond … 2 H”) is 0.0 and the “Relative affinity of the bond (RAB), Progestogen, 24 H” value (“Relative affinity … Progestogen, 24 H” for short) was 1.8. In addition, in test [2], the “Relative affinity of the bond (RAB), Glucocoticoid, 4 H” value (“Relative affinity … Glucocoticoid, 4 H” below) is reported as 7 and the “Relative affinity of the bond (RAB), Glucocoticoid, 24 H” value (“Relative affinity … Glucocoticoid, 24 H” below) was 7.

As for `CC(C)N(C)C(=O)CCCCCCCCCC[C@H]1C[C@]2(C)[C@@H](O)CC[C@H]2[C@@H]2CCc3cc(O)ccc3[C@@H]12` [Example 16, 3,17β-dihydroxy-N-methyl-N-isopropyl-11β-Δ^1,3,5(10)-estratriene undecanamide], in test [1], the “Relative affinity of the bond … 2 H” value is on record as 0.5 and the “Relative affinity … Progestogen, 24 H” value is reported as 2. Moreover, in test [2], the “Relative affinity … Glucocoticoid, 4 H” value was found to be 12 and the “Relative affinity … Glucocoticoid, 24 H” value was found to be 11.

As to `CN(Cc1ccccc1)C(=O)CCCCCCCCCC[C@H]1C[C@]2(C)[C@@H](O)CC[C@H]2[C@@H]2CCC3=CC(=O)CCC3=C12` [Example 17, N-benzyl-17β-hydroxy-N-methyl-3-oxo-11β-Δ^4,9-estradiene undecanamide], in test [1], the “affinity for the pregesterone receptor” value was “moderate affinity”; the “Relative affinity of the bond … 2 H” value is 0; the “Relative affinity … Progestogen, 24 H” value was 16. Further, in test [2], the “Relative affinity … Glucocoticoid, 4 H” value came to 3 and the “Relative affinity … Glucocoticoid, 24 H” value is 6.

For the compound `CN(C)CCN(C)C(=O)CCCCCCCCCC[C@H]1C[C@]2(C)[C@@H](O)CC[C@H]2[C@@H]2CCC3=CC(=O)CCC3=C12` [Example 19, N-[2-(dimethylamino)-ethyl]-17β-hydroxy-N-methyl-3-oxo-11β-Δ^4,9-estradiene undecanamide], in test [1], the “Relative affinity of the bond … 2 H” value is 6 and the “Relative affinity … Progestogen, 24 H” value came to 7. Moreover, in test [2], the “Relative affinity … Glucocoticoid, 4 H” value turned out to be 6 and the “Relative affinity … Glucocoticoid, 24 H” value worked out at 4.6.

As for `CC#C[C@]1(O)CC[C@H]2[C@@H]3CCC4=CC(=O)CCC4=C3[C@@H](CCCCCCCCCCC(=O)NCCCC)C[C@@]21C` [Example 22, N-butyl-17β-hydroxy-3-oxo-17α-(1-propynyl)-11β-Δ^4,9-estradiene undecanamide], in test [1], the “affinity for the pregesterone receptor” value is “moderate affinity”; the “Relative affinity of the bond … 2 H” value stood at 12; the “Relative affinity … Progestogen, 24 H” value is listed as 21. In test [2], the “Relative affinity … Glucocoticoid, 4 H” value came out at 7 and the “Relative affinity … Glucocoticoid, 24 H” value is 14.

As for `CCCCN(C)C(=O)CCCCCCCCCCC[C@H]1C[C@]2(C)[C@@H](O)CC[C@H]2[C@@H]2CCc3cc(O)ccc3[C@@H]12` [Example 24, N-butyl-3,17β-dihydroxy-N-methyl-11β-Δ^1,3,5(10)-estratriene dodecanamide], in test [1], the “Relative affinity of the bond … 2 H” value is reported as 0 and the “Relative affinity … Progestogen, 24 H” value was determined as 0. For the same compound, in test [2], the “Relative affinity … Glucocoticoid, 4 H” value turned out to be 2 and the “Relative affinity … Glucocoticoid, 24 H” value was determined as 3.

Regarding “N-butyl-3,17β-dihydroxy-N-methyl-19-nor-11β-Δ^1,3,5(10)-pregnatrien-20-yn undecanamide [Example 21]”, in test [1], the “Relative affinity of the bond … 2 H” value turned out to be 0.3 and the “Relative affinity … Progestogen, 24 H” value was 1. Moreover, in test [2], the “Relative affinity … Glucocoticoid, 4 H” value was 2 and the “Relative affinity … Glucocoticoid, 24 H” value worked out at 2.6.
